According to PubChem BioAssay AID248 (DTP/NCI, 2004):
Values joined by “and” are separate entries in the source; they are usually repeats but may differ in a detail not shown here. Equal values may be shown once. Toxic doses and inconclusive results are not listed. No stated cut-off is given here; in the data, active means T/C of 150% or more; inactive means T/C below 125%.

Test system: L1210 leukemia ip in BDF1 mice, survival T/C
Experiment: NCI In Vivo Anticancer Drug Screen. Data for tumor model L1210 Leukemia (intraperitoneal) in B6D2F1 (BDF1) mice
Conditions: higher = longer survival
Method in brief: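 Tumor cells were implanted, animals were treated, and survival was followed. The result divides the treated measurement by the vehicle-control measurement.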

[1] = endpoint: mean survival time, dose: 50.0 mg/kg/injection, schedule: Q01DX009 (ip), vehicle: saline
[2] = endpoint: mean survival time, dose: 50.0 mg/kg/injection, schedule: Q01DX001 (ip), vehicle: carboxymethylcellulose (CMC)
[3] = endpoint: mean survival time, dose: 100.0 mg/kg/injection, schedule: Q01DX001 (ip), vehicle: carboxymethylcellulose (CMC)
[4] = endpoint: mean survival time, dose: 200.0 mg/kg/injection, schedule: Q01DX001 (ip), vehicle: carboxymethylcellulose (CMC)
[5] = endpoint: mean survival time, dose: 400.0 mg/kg/injection, schedule: Q01DX001 (ip), vehicle: carboxymethylcellulose (CMC)

Measured: T/C

CO[C@H](C(=O)[C@@H](O)[C@@H](C)O)[C@@H]1Cc2cc3cc(OC4CC(OC5CC(O)C(O)C(C)O5)C(O)C(C)O4)c(C)c(O)c3c(O)c2C(=O)[C@H]1OC1CC(OC2CC(OC3CC(C)(O)C(O)C(C)O3)C(O)C(C)O2)C(O)C(C)O1 (stereo not given in full)
inactive: endpoint: mean survival time, dose: 0.13 mg/kg/injection, schedule: Q01DX001 (iv), vehicle: water 86 % of control | endpoint: mean survival time, dose: 0.15 mg/kg/injection, schedule: Q01DX015 (ip), vehicle: saline 93 % of control | endpoint: mean survival time, dose: 0.25 mg/kg/injection, schedule: Q01DX001 (ip), vehicle: water 104 % of control | endpoint: mean survival time, dose: 0.25 mg/kg/injection, schedule: Q01DX001 (iv), vehicle: water 96 % of control | endpoint: mean survival time, dose: 0.25 mg/kg/injection, schedule: Q01DX Z (ip), vehicle: saline 98 % of control | endpoint: mean survival time, dose: 0.31 mg/kg/injection, schedule: Q01DX015 (ip), vehicle: saline 104 % of control | endpoint: mean survival time, dose: 0.37 mg/kg/injection, schedule: Q01DX001 (ip), vehicle: water 98 % of control | endpoint: mean survival time, dose: 0.5 mg/kg/injection, schedule: Q01DX001 (ip), vehicle: saline 98 % of control and 101 % of control | endpoint: mean survival time, dose: 0.5 mg/kg/injection, schedule: Q01DX001 (ip), vehicle: water 95 % of control and 97 % of control | endpoint: mean survival time, dose: 0.5 mg/kg/injection, schedule: Q01DX001 (iv), vehicle: water 100 % of control | endpoint: mean survival time, dose: 0.5 mg/kg/injection, schedule: Q01DX Z (ip), vehicle: saline 107 % of control | endpoint: mean survival time, dose: 0.62 mg/kg/injection, schedule: Q01DX015 (ip), vehicle: saline 102 % of control | endpoint: mean survival time, dose: 1.0 mg/kg/injection, schedule: Q01DX001 (ip), vehicle: saline 97 % of control | endpoint: mean survival time, dose: 1.0 mg/kg/injection, schedule: Q01DX Z (ip), vehicle: saline 103 % of control | endpoint: mean survival time, dose: 1.25 mg/kg/injection, schedule: Q01DX001 (ip), vehicle: saline 109 % of control | endpoint: mean survival time, dose: 1.25 mg/kg/injection, schedule: Q01DX015 (ip), vehicle: saline 96 % of control | endpoint: mean survival time, dose: 2.0 mg/kg/injection, schedule: Q01DX001 (ip), vehicle: saline 101 % of control | endpoint: mean survival time, dose: 2.5 mg/kg/injection, schedule: Q01DX001 (ip), vehicle: saline 109 % of control | endpoint: mean survival time, dose: 10.0 mg/kg/injection, schedule: Q01DX001 (ip), vehicle: saline 91 % of control | endpoint: mean survival time, dose: 1.5 micrograms/kg/injection, schedule: Q01DX009 (ip), vehicle: saline 101 % of control and 114 % of control | endpoint: mean survival time, dose: 3.0 micrograms/kg/injection, schedule: Q01DX009 (ip), vehicle: saline 100 % of control and 104 % of control | endpoint: mean survival time, dose: 6.0 micrograms/kg/injection, schedule: Q01DX009 (ip), vehicle: saline 95 % of control and 97 % of control | endpoint: mean survival time, dose: 12.0 micrograms/kg/injection, schedule: Q01DX009 (ip), vehicle: saline 94 % of control and 95 % of control | endpoint: mean survival time, dose: 12.0 micrograms/kg/injection, schedule: Q04DX002 (ip), vehicle: saline 97 % of control and 108 % of control | endpoint: mean survival time, dose: 22.0 micrograms/kg/injection, schedule: Q01DX Z (ip), vehicle: water 97 % of control | endpoint: mean survival time, dose: 22.0 micrograms/kg/injection, schedule: Q02DX Z (ip), vehicle: water 88 % of control | endpoint: mean survival time, dose: 23.0 micrograms/kg/injection, schedule: Q04DX002 (ip), vehicle: saline 101 % of control and 90 % of control | endpoint: mean survival time, dose: 25.0 micrograms/kg/injection, schedule: Q01DX009 (ip), vehicle: saline 99 % of control and 100 % of control | endpoint: mean survival time, dose: 33.0 micrograms/kg/injection, schedule: Q01DX Z (ip), vehicle: water 91 % of control | endpoint: mean survival time, dose: 33.0 micrograms/kg/injection, schedule: Q02DX Z (ip), vehicle: water 96 % of control | endpoint: mean survival time, dose: 45.0 micrograms/kg/injection, schedule: Q04DX002 (ip), vehicle: saline 94 % of control and 103 % of control | endpoint: mean survival time, dose: 50.0 micrograms/kg/injection, schedule: Q01DX009 (ip), vehicle: saline 103 % of control and 110 % of control | endpoint: mean survival time, dose: 50.0 micrograms/kg/injection, schedule: Q01DX Z (ip), vehicle: water 88 % of control | endpoint: mean survival time, dose: 50.0 micrograms/kg/injection, schedule: Q02DX Z (ip), vehicle: water 91 % of control | endpoint: mean survival time, dose: 62.5 micrograms/kg/injection, schedule: Q01DX Z (ip), vehicle: saline 97 % of control | endpoint: mean survival time, dose: 75.0 micrograms/kg/injection, schedule: Q01DX Z (ip), vehicle: water 91 % of control | endpoint: mean survival time, dose: 75.0 micrograms/kg/injection, schedule: Q02DX Z (ip), vehicle: water 97 % of control | endpoint: mean survival time, dose: 90.0 micrograms/kg/injection, schedule: Q04DX002 (ip), vehicle: saline 100 % of control and 106 % of control | endpoint: mean survival time, dose: 125.0 micrograms/kg/injection, schedule: Q01DX009 (ip), vehicle: clinical formulation 103 % of control | endpoint: mean survival time, dose: 125.0 micrograms/kg/injection, schedule: Q01DX009 (ip), vehicle: saline 105 % of control | endpoint: mean survival time, dose: 125.0 micrograms/kg/injection, schedule: Q01DX Z (ip), vehicle: saline 107 % of control | endpoint: mean survival time, dose: 190.0 micrograms/kg/injection, schedule: Q04DX002 (ip), vehicle: saline 87 % of control and 90 % of control | endpoint: mean survival time, dose: 250.0 micrograms/kg/injection, schedule: Q01DX009 (ip), vehicle: clinical formulation 103 % of control | endpoint: mean survival time, dose: 250.0 micrograms/kg/injection, schedule: Q01DX009 (ip), vehicle: saline 107 % of control | endpoint: mean survival time, dose: 250.0 micrograms/kg/injection, schedule: Q01DX Z (ip), vehicle: saline 109 % of control | endpoint: mean survival time, dose: 370.0 micrograms/kg/injection, schedule: Q04DX002 (ip), vehicle: saline 97 % of control and 103 % of control | endpoint: mean survival time, dose: 375.0 micrograms/kg/injection, schedule: Q01DX009 (ip), vehicle: saline 108 % of control | endpoint: mean survival time, dose: 500.0 micrograms/kg/injection, schedule: Q01DX009 (ip), vehicle: clinical formulation 108 % of control | endpoint: mean survival time, dose: 500.0 micrograms/kg/injection, schedule: Q01DX009 (ip), vehicle: saline 113 % of control | endpoint: mean survival time, dose: 500.0 micrograms/kg/injection, schedule: Q01DX Z (ip), vehicle: saline 113 % of control | endpoint: mean survival time, dose: 750.0 micrograms/kg/injection, schedule: Q01DX009 (ip), vehicle: saline 108 % of control | endpoint: mean survival time, dose: 1000.0 micrograms/kg/injection, schedule: Q01DX009 (ip), vehicle: clinical formulation 109 % of control | endpoint: mean survival time, dose: 1000.0 micrograms/kg/injection, schedule: Q01DX009 (ip), vehicle: saline 114 % of control | endpoint: mean survival time, dose: 1500.0 micrograms/kg/injection, schedule: Q01DX009 (ip), vehicle: saline 108 % of control | endpoint: mean survival time, dose: 3000.0 micrograms/kg/injection, schedule: Q01DX009 (ip), vehicle: saline 113 % of control | endpoint: median survival time, dose: 0.25 mg/kg/injection, schedule: Q01DX009 (ip), vehicle: saline 100 % of control and 111 % of control | endpoint: median survival time, dose: 0.5 mg/kg/injection, schedule: Q01DX009 (ip), vehicle: saline 106 % of control and 122 % of control

Cc1ccc(Nc2ccc([N+](=O)[O-])cc2[N+](=O)[O-])c(C)c1
inactive: endpoint: mean survival time, dose: 100.0 mg/kg/injection, schedule: Q01DX009 (ip), vehicle: Klucel (hydroxypropylcellulose) (HPC) 94 % of control | endpoint: mean survival time, dose: 100.0 mg/kg/injection, schedule: Q04DX003 (ip), vehicle: Klucel (hydroxypropylcellulose) (HPC) 96 % of control | endpoint: mean survival time, dose: 200.0 mg/kg/injection, schedule: Q01DX009 (ip), vehicle: Klucel (hydroxypropylcellulose) (HPC) 101 % of control | endpoint: mean survival time, dose: 200.0 mg/kg/injection, schedule: Q04DX003 (ip), vehicle: Klucel (hydroxypropylcellulose) (HPC) 91 % of control | endpoint: mean survival time, dose: 400.0 mg/kg/injection, schedule: Q01DX009 (ip), vehicle: Klucel (hydroxypropylcellulose) (HPC) 103 % of control | endpoint: mean survival time, dose: 400.0 mg/kg/injection, schedule: Q04DX003 (ip), vehicle: Klucel (hydroxypropylcellulose) (HPC) 98 % of control

CN(C)CCCN1c2ccccc2CCc2ccccc21
inactive: endpoint: mean survival time, dose: 3.12 mg/kg/injection, schedule: Q01DX009 (ip), vehicle: saline 96 % of control | endpoint: mean survival time, dose: 6.25 mg/kg/injection, schedule: Q01DX009 (ip), vehicle: saline 101 % of control | endpoint: mean survival time, dose: 12.5 mg/kg/injection, schedule: Q01DX009 (ip), vehicle: saline 93 % of control | endpoint: mean survival time, dose: 25.0 mg/kg/injection, schedule: Q01DX009 (ip), vehicle: saline 104 % of control | endpoint: mean survival time, dose: 25.0 mg/kg/injection, schedule: Q04DX003 (ip), vehicle: saline 100 % of control | [1] 101 % of control | endpoint: mean survival time, dose: 50.0 mg/kg/injection, schedule: Q04DX003 (ip), vehicle: saline 93 % of control | endpoint: mean survival time, dose: 100.0 mg/kg/injection, schedule: Q01DX001 (ip), vehicle: saline 94 % of control | endpoint: mean survival time, dose: 200.0 mg/kg/injection, schedule: Q01DX001 (ip), vehicle: saline 90 % of control

c1ccc2c(c1)[nH]c1nc3ccncc3nc12
inactive: endpoint: mean survival time, dose: 100.0 mg/kg/injection, schedule: Q04DX003 (ip), vehicle: saline 103 % of control | endpoint: mean survival time, dose: 200.0 mg/kg/injection, schedule: Q04DX003 (ip), vehicle: saline 94 % of control

O=C(O)C1(O)c2cc(Br)ccc2-c2ccc(Br)cc21
inactive: [2] 100 % of control | [3] 97 % of control | [4] 100 % of control | [5] 92 % of control

CCCCN1CCNCC1
inactive: [1] 95 % of control | endpoint: mean survival time, dose: 100.0 mg/kg/injection, schedule: Q01DX009 (ip), vehicle: saline 97 % of control | endpoint: mean survival time, dose: 200.0 mg/kg/injection, schedule: Q01DX009 (ip), vehicle: saline 106 % of control

O=C1C(=O)N2CCCCc3cccc1c32
inactive: [2] 96 % of control | [3] 108 % of control | [4] 100 % of control | [5] 101 % of control
